Test results: patent publication US10471028B2, “Small molecule efflux pump inhibitors” (UNIVERSITY OF ROCHESTER, priority 2014, dated 2019)
Where two headings read alike, the source gives them in different places.

Legend:
[1] = system: A. baumannii strain 98-37-09; assay: Cellular accumulation of minocycline (HPLC, triple-quadrupole MS); type: cell-based, Acinetobacter baumannii; conditions: for Minocylcine Per Cell (femtomoles cell^−1): human serum with 0.5 μg mL^−1 minocycline plus test compound (0.5×MEC, 1×MEC), 48 hours
Description: High pressure liquid chromatography and triple-quadrupole mass spectrometry were used to measure the A. baumannii intracellular levels of minocycline during growth in human serum in the absence and presence of each putative efflux pump inhibitor. […] Cultures were incubated for 48 hours with shaking, at which point an aliquot was removed, serially diluted, and plated to determine the number of viable CFU per mixture. The remainder of the cells were pelleted by centrifugation at 900×g at 4° C., washed twice in PBS, mechanically lysed with a FastPrep cell disrupter (MP Biomedicals, Santa Ana, Calif.) for 20 seconds at 5 m s^−1 and the cellular debris was pelleted via centrifugation at 900×g and 4° C. The amount of minocycline present within the supernatant of ruptured cells was measured. Briefly, doxycycline (0.5 μg mL^−1) was first added to each supernatant to serve as an internal control to account for sample-to-sample preparation variability. The supernatant was then combined with acetonitrile (ACN) at a 1:10 ratio and centrifuged at 16,000×g, at 4° C., to collect minocycline and doxycycline. […] residual liquid was evaporated in a speed vacuum for 2 hours at 8,000×g. To quantify the amount of antibiotics retained, sample materials were suspended in 50% acetonitrile, filtered through a 0.2 μm low protein binding hydrophilic membrane (Millipore, Billerica, Mass.) then separated on Shimadzu high performance liquid chromatography instrument (Fisher Scientific) using a BetaBasic C18 reverse phase column (Thermo Scientific). Separation was carried out with two mobile phase solutions consisting of solution (A) water with 0.1% formic acid and solution (B) 100% ACN. The gradient profile of the chromatography runs was as follows: from 0 to 0.1 min 8% solution B, ramp step wise (37% to 60% solution B) from 0.1 to 6.5 min then holding for one minute before ramping down from 60% to 10% from 7.5 to 8 min. This was followed a hold at 10% solution B for one minute. […] The column was equilibrated in 8% solution B at 40° C. and the flow rate was set to 0.2 mL min^−1. Mass spectrometry analysis of fractions was carried out using a Thermo TSQ Quantum Ultra triple quadrupole mass spectrometer (Fisher Scientific). Data were analyzed using Xcalibur software (Thermo Scientific); the following parameters were used to detect minocycline and the internal control doxycycline: 458.208 m/z→282.971 m/z (collision energy=43, tube lens=119) for minocycline and 445.144 m/z→266.900 m/z (collision energy=39, tube lens=127) for doxycycline. Analysis of the raw data was conducted by using the area under the curve calculations with the Genesis algorithm to determine the concentration in each sample. The difference between the peak intensity and the y intercept of pre-established minocycline and doxycycline standard curves was divided by the slope of the standard curve to quantify the amount of minocycline within each sample. The total concentration of minocycline within each cell was calculated by normalizing to the number of cells within each corresponding culture.

[2] = system: A. baumannii strain 98-37-09; assay: MEC determination: potentiation of minocycline toward serum grown A. baumannii; type: cell-based, Acinetobacter baumannii; conditions: for Log-reduction Colony Forming Units (ml^−1): 1×MEC of compound plus minocycline in serum, versus minocycline alone, plating; for MEC: lowest concentration inhibiting growth in 100% human serum with 0.5 μg ml^−1 minocycline, 48 hr
Description: The TimTec ActiProbe-25K diversity-set and Natural Product compound libraries (29,900 compounds total; TimTec, Newark, Del.) were initially screened for putative efflux pump inhibitors by identifying compounds that potentiated the antimicrobial property of a sub-inhibitory concentration of minocycline toward A. baumannii grown in human serum. To do so, A. baumannii strain 98-37-09 was grown for 16 hours in LB medium at 37° C. on a rotary shaker at 225 rpm. Approximately 1×10^5 CFU were then transferred to individual wells of a 96-well round-bottom plate (Corning Costar, Tewksbury, Mass.) containing 100 μL of human serum supplemented with of minocycline (0.5 μg mL^−1; 0.5× minimum inhibitory concentration in serum) and individual members of the Timtec ActiProbe or Natural product library (50 μM). Plates were then incubated at 37° C. for 48 hours. Growth was measured as a function of turbidity. Putative efflux pump inhibitors were identified as compounds that inhibited A. baumannii growth in human serum containing minocycline and were subsequently retested in triplicate, as indicated above. Untreated A. baumannii grown in serum supplemented with minocycline+/−PAβN served as positive and negative controls, respectively. […] Repeat testing in which well constituents were serial diluted and plated on LB agar plates validated that 85 compounds did indeed limit A. baumannii growth in serum supplemented with minocycline, reducing the number of viable colony forming units between 2-6 log cfu in comparison to minocycline alone treated cells.
The MEC was defined as the lowest concentration of test compound required to inhibit the growth of A. baumannii in serum in the presence of 0.5 μg ml^−1 minocycline. Plating confirmed that addition of 1×MEC of each compound elicited ≥1.9-log reduction in A. baumannii cells grown in serum supplemented with minocycline alone (see Table 1).

[3] = system: A. baumannii strain 98-37-09; assay: Potentiation of ciprofloxacin toward serum grown A. baumannii; type: cell-based, Acinetobacter baumannii; conditions: 100% human serum, 0.125 μg ml^−1 ciprofloxacin, 1× or 2× MEC, 48 hour, growth inhibition
Source text: As a means to further prioritize non-toxic compounds of interest based on their therapeutic promise, it was considered that broad spectrum antimicrobial efflux pump inhibitors may be more clinically valuable than narrow-spectrum agents that only potentiate the activity of a limited number of antibiotics or that display activity toward a single bacterial species. […] To do so, 1×10^5 A. baumannii strain 98-37-09 were inoculated into individual wells of microtiter plates containing 100% human serum supplemented with 0.125 μg ml^−1 ciprofloxacin and 0, 1×, or 2× the compound's MEC, as defined by the lowest concentration needed to potentiated minocycline's antimicrobial effects (above). Plates were incubated for 48 hour at which point each compound's ability to potentiate ciprofloxacin was measured, as growth inhibition.

human HepG2 cells = assay: MTT cell viability (cytotoxicity) assay
Description: To distinguish putatively non-toxic from human cytotoxic compounds, conventional 3-(4,5-dimethylthiazol-2yl)-2,5-diphenyltetrazolium bromide (MTT) cell viability assays (American Type Culture Collection, Manassas, Va.) were performed for each compound of interest at 1× and 4× their MEC. Briefly, human HepG2 cells were grown to approximately 1×10^6 cells per well in Dulbecco's Modified Eagle Media supplemented with 10% fetal bovine serum (Invitrogen, Carlsbad, Calif.) then treated with 1× or 4× the MEC of the indicated […] Cell viability was measured following the addition of the tetrazolium salt (MTT) as per the manufacturer's recommendations; cells challenged with 50 ug ml^−1 Mitomycin C (Sigma Aldrich) and mock-treated cells served as positive and negative controls, respectively.

CC(=O)NS(=O)(=O)c1ccc(N)cc1 [ST040724]
Minocylcine Per Cell (femtomoles cell^−1) [1]: 1.45E−04 femtomoles cell^−1 | Log-reduction Colony Forming Units (ml^−1) [2]: 4.08 log | MEC [2]: 64 µg/mL | Potentiate Ciprofloxacin A. baumannii [3]: No

N#Cc1c(/N=C/c2ccc([N+](=O)[O-])o2)sc2c1CCCC2 [ST033065]
Minocylcine Per Cell (femtomoles cell^−1) [1]: 2.06E−05 femtomoles cell^−1 | Log-reduction Colony Forming Units (ml^−1) [2]: 2.44 log | MEC [2]: 2 µg/mL | % Viability (human HepG2 cells): 75.6% | Potentiate Ciprofloxacin A. baumannii [3]: No

CCc1ccc(/C=N/c2ccc(S(N)(=O)=O)cc2)cc1 [ST016444]
Minocylcine Per Cell (femtomoles cell^−1) [1]: 2.02E−05 femtomoles cell^−1 | Log-reduction Colony Forming Units (ml^−1) [2]: 4.86 log | MEC [2]: 16 µg/mL | % Viability (human HepG2 cells): 53.92%

COc1ccc2c(c1)CCC(C)N2S(=O)(=O)c1ccc(C2CNC(=O)C2)cc1 (stereo not drawn) [ST058899]
Minocylcine Per Cell (femtomoles cell^−1) [1]: 1.08E−04 femtomoles cell^−1 | Log-reduction Colony Forming Units (ml^−1) [2]: 6.21 log | MEC [2]: 64 µg/mL | % Viability (human HepG2 cells): 80.69% | Potentiate Ciprofloxacin A. baumannii [3]: No

COc1ccc(O)c(/C=N/N=C/c2cc(OC)ccc2O)c1 [ST020959]
Minocylcine Per Cell (femtomoles cell^−1) [1]: 1.27E−04 femtomoles cell^−1 | Log-reduction Colony Forming Units (ml^−1) [2]: 6.90 log | MEC [2]: 2 µg/mL | % Viability (human HepG2 cells; human, 48 h, 4 ×MEC): 51.04%

C/C(=N\NC(=O)c1ccccc1F)c1ccccc1O [ST033061]
Minocylcine Per Cell (femtomoles cell^−1) [1]: 1.96E−04 femtomoles cell^−1 | Log-reduction Colony Forming Units (ml^−1) [2]: 2.18 log | MEC [2]: 2 µg/mL | % Viability (human HepG2 cells): 77.58% | Potentiate Ciprofloxacin A. baumannii [3]: No

Cc1nnc(SCC2=C(C(=O)[O-])N3C(=O)[C@@H](NC(=O)Cn4cnnn4)[C@H]3SC2)s1.[Na+] [ST024775]
Minocylcine Per Cell (femtomoles cell^−1) [1]: 1.72E−05 femtomoles cell^−1 | Log-reduction Colony Forming Units (ml^−1) [2]: 4.84 log | MEC [2]: 16 µg/mL | % Viability (human HepG2 cells; HepG2 cellular survival at 4×MEC): 41.62%

COc1cc(C(=O)Nc2ccccc2C(=O)NCC2CCCO2)cc(OC)c1OC (stereo not drawn) [ST060053]
Minocylcine Per Cell (femtomoles cell^−1) [1]: 1.78E−04 femtomoles cell^−1 | Log-reduction Colony Forming Units (ml^−1) [2]: 4.94 log | MEC [2]: 4 µg/mL | % Viability (human HepG2 cells): 76.11% | Potentiate Ciprofloxacin A. baumannii [3]: No

O=C(c1ccc([N+](=O)[O-])cc1Cl)N1CCCc2ccccc21 [ST011123]
Minocylcine Per Cell (femtomoles cell^−1) [1]: 1.19E−05 femtomoles cell^−1 | Log-reduction Colony Forming Units (ml^−1) [2]: 2.83 log | MEC [2]: 32 µg/mL | % Viability (human HepG2 cells): 67.89%

CC1CCN(Cc2cc(Cl)c3cccnc3c2O)CC1 [ST007924]
Minocylcine Per Cell (femtomoles cell^−1) [1]: 5.12E−05 femtomoles cell^−1 | Log-reduction Colony Forming Units (ml^−1) [2]: 2.42 log | MEC [2]: 4 µg/mL | % Viability (human HepG2 cells): 67.45%

NS(=O)(=O)c1ccc(/N=C/c2ccc(F)cc2)cc1 [ST009698]
Minocylcine Per Cell (femtomoles cell^−1) [1]: 1.52E−05 femtomoles cell^−1 | Log-reduction Colony Forming Units (ml^−1) [2]: 6.45 log | MEC [2]: 64 µg/mL | % Viability (human HepG2 cells): 73.56%

O=[N+]([O-])c1cc2c(cc1/C=N/c1ccc(S(=O)(=O)Nc3nccs3)cc1)OCO2 [ST012902]
Minocylcine Per Cell (femtomoles cell^−1) [1]: 1.1E−05 femtomoles cell^−1 | Log-reduction Colony Forming Units (ml^−1) [2]: 3.71 log | MEC [2]: 2 µg/mL | % Viability (human HepG2 cells): 55.1%

CCOc1ccccc1C(=O)Nc1sc2c(c1C(=O)OC(C)C)CCCC2 [ST009896]
Minocylcine Per Cell (femtomoles cell^−1) [1]: 3.99E−05 femtomoles cell^−1 | Log-reduction Colony Forming Units (ml^−1) [2]: 2.45 log | MEC [2]: 2 µg/mL | % Viability (human HepG2 cells): 73.54%

c1ccc(CN2CCN(Cc3ccccc3)C2c2cccs2)cc1 [ST007852]
Minocylcine Per Cell (femtomoles cell^−1) [1]: 5.9E−05 femtomoles cell^−1 | Log-reduction Colony Forming Units (ml^−1) [2]: 4.21 log | MEC [2]: 4 µg/mL | % Viability (human HepG2 cells): 65.77%

CN(C)c1ccc(O)c2c1C[C@H]1C[C@H]3[C@H](N(C)C)C(O)=C(C(N)=O)C(=O)[C@@]3(O)C(O)=C1C2=O [minocycline, reference compound]
cellular minocycline concentration ([1]; growth in serum (efflux active conditions), minocycline without efflux inhibitor): 1.58×10^−10 femtomoles per bacterial cell | HepG2 survival (human HepG2 cells; minocycline tested alone at 2 μg ml^−1): 77.9%

COc1ccc(/C=N/c2ccc(S(N)(=O)=O)cc2)c(OC)c1 [ST016442]
Minocylcine Per Cell (femtomoles cell^−1) [1]: 1.96E−04 femtomoles cell^−1 | Log-reduction Colony Forming Units (ml^−1) [2]: 3.88 log | MEC [2]: 2 µg/mL | % Viability (human HepG2 cells): 53.43%

O=C(c1ccc(Cl)cc1Cl)n1cc([N+](=O)[O-])cn1 [ST033231]
Minocylcine Per Cell (femtomoles cell^−1) [1]: 3.42E−06 femtomoles cell^−1 | Log-reduction Colony Forming Units (ml^−1) [2]: 1.91 log | MEC [2]: 32 µg/mL | % Viability (human HepG2 cells): 70.87%

COc1ccc(OC)c(/C=N/c2ccc(S(N)(=O)=O)cc2)c1 [ST016443]
Minocylcine Per Cell (femtomoles cell^−1) [1]: 4.4E−04 femtomoles cell^−1 | Log-reduction Colony Forming Units (ml^−1) [2]: 2.00 log | MEC [2]: 2 µg/mL | % Viability (human HepG2 cells): 57.49%

O=[N+]([O-])c1cccc(/C=N/c2ccc(S(=O)(=O)Nc3nccs3)cc2)c1 [ST012961]
Minocylcine Per Cell (femtomoles cell^−1) [1]: 1.13E−04 femtomoles cell^−1 | Log-reduction Colony Forming Units (ml^−1) [2]: 6.23 log | MEC [2]: 32 µg/mL | % Viability (human HepG2 cells): 59.32%

NS(=O)(=O)c1ccc(/N=C/c2ccc(Br)cc2)cc1 [ST009699]
Minocylcine Per Cell (femtomoles cell^−1) [1]: 1.15E−04 femtomoles cell^−1 | Log-reduction Colony Forming Units (ml^−1) [2]: 6.84 log | MEC [2]: 2 µg/mL | % Viability (human HepG2 cells): 70.45%

COc1cc(/C=N/NC(=O)c2sc3ccccc3c2Cl)cc(OC)c1OC [ST033346]
Minocylcine Per Cell (femtomoles cell^−1) [1]: 3.615E−07 femtomoles cell^−1 | Log-reduction Colony Forming Units (ml^−1) [2]: 2.00 log | MEC [2]: 2 µg/mL | % Viability (human HepG2 cells): 74.67%

CCOc1ccc(/C=N/c2ccc(S(N)(=O)=O)cc2)cc1 [ST009694]
Minocylcine Per Cell (femtomoles cell^−1) [1]: 6.8E−07 femtomoles cell^−1 | Log-reduction Colony Forming Units (ml^−1) [2]: 6.24 log | MEC [2]: 4 µg/mL | % Viability (human HepG2 cells): 74.6%
